Where two headings read alike, the source gives them in different places.
Tests used:
A2780 cells = test: In-vitro cell proliferation assay (SRB, 72 hours); type: cell-based; settings: sulforhodamine B (SRB) assay
Experimental: In-Vitro Cell Proliferation Assay
After overnight incubation at 37° C. and 5% CO2, the compound titrations were performed in a separate dilution plate by serially diluting the compounds in DMSO to make a 1000× stock. The compounds were then further diluted to 10× final concentration in culture media, whereupon 20 μL of each dilution was added to the plated cells with controls (e.g. DMSO and blank) to make a final volume of 200 μL. The final DMSO concentration in each well was 0.1%. The plates were then incubated for 72 hours at 37° C. in a 5% CO2 incubator. The number of viable cells was then assessed using sulforhodamine B (SRB) assay. Cells were fixed at 4° C. for 1 hour with the addition of 50 μL 30% trichloroacetic acid (TCA) to make a final concentration of 6% TCA. The plates were washed four times with H2O and allowed to dry for at least 1 hour, whereupon 100 μL of a 4% SRB in 1% acetic acid solution was added to each well and incubated at room temperature for at least 30 minutes. The plates were then washed three times with 1% acetic acid, dried, and treated with 100 μL of 10 mM Tris-Base solution. The plates were then read in a microplate reader at an absorbance of 570 nm. Background was generated on a separate plate with media only.
Method for Determining % Inhibition
First, the signals from the background plate are averaged, then the background was subtracted from the test plates.
wherein x denotes the average signal of the compound-treated cells and y denotes the average signal of the DMSO-treated cells.
wherein X denotes the compound concentration 1, Y denotes the compound concentration 2, XX denotes the % inhibition at compound concentration 1 (X), and YY denotes the % inhibition at compound concentration 2 (Y).

[1] = target: T1, Recombinant His-tagged NAMPT (Homo sapiens, UniProt P43490); test: Biochemical inhibition assay: NAMPT enzymatic reaction, NMN quantified by mass spectrometry; settings: 33 nM NAMPT, 1 μM NAM, 100 μM PRPP, 30 minutes at room temperature, read-out: Biochem IC50
T1 construct: His; host or cells: E. coli
Experimental: Biochemical Inhibition Assay
NAMPT Protein Purification
Recombinant His-tagged NAMPT was produced in E. coli cells, purified over a Ni column, and further purified over a size-exclusion column by XTAL Biostructures.
The NAMPT Enzymatic Reaction
The NAMPT enzymatic reactions were carried out in Buffer A (50 mM Hepes pH 7.5, 50 mM NaCl, 5 mM MgCl2, and 1 mM THP) in 96-well V-bottom plates. The compound titrations were performed in a separate dilution plate by serially diluting the compounds in DMSO to make a 100× stock. […] The compound and enzyme mix was incubated for 15 minutes at room temperature, then 10 μL of 10× substrate and co-factors in Buffer A were added to the test well to make a final concentration of 1 μM NAM, 100 μM 5-Phospho-D-ribose 1-diphosphate (PRPP), and 2.5 mM Adenosine 5′-triphosphate (ATP). The reaction was allowed to proceed for 30 minutes at room temperature, then was quenched with the addition of 11 μL of a solution of formic acid and L-Cystathionine to make a final concentration of 1% formic acid and 10 μM L-Cystathionine. Background and signal strength was determined by addition (or non-addition) of a serial dilution of NMN to a pre-quenched enzyme and cofactor mix.
A mass spectrometry-based assay was used to measure the Nampt reaction product (NMN) and the internal control (L-Cystathionine). NMN and L-Cystathionine were detected using the services of Biocius Lifesciences with the RapidFire system. In short, the NMN and L-Cystathionine are bound to a graphitic carbon cartridge in 0.1% formic acid, eluted in 30% acetonitrile buffer, and injected into a Sciex 4000 mass spectrometer. The components of the sample were ionized with electrospray ionization and the positive ions were detected. […] The fragments are quantified and the analyzed by the following method.
First the NMN signal is normalized to the L-Cystathionine signal by dividing the NMN signal by the L-Cystathionine signal for each well. The signal from the background wells are averaged and subtracted from the test plates.
Wherein x denotes the average signal of the compound treated wells and y denotes the average signal of the DMSO treated wells.
IC50s are Determined Using Excel and this Formula.
Wherein X denotes the compound concentration 1, Y denotes the compound concentration 2, XX denotes the % inhibition at compound concentration 1 (X), and YY denotes the % inhibition at compound concentration 2 (Y).

T1 sequence (P43490 whole entry): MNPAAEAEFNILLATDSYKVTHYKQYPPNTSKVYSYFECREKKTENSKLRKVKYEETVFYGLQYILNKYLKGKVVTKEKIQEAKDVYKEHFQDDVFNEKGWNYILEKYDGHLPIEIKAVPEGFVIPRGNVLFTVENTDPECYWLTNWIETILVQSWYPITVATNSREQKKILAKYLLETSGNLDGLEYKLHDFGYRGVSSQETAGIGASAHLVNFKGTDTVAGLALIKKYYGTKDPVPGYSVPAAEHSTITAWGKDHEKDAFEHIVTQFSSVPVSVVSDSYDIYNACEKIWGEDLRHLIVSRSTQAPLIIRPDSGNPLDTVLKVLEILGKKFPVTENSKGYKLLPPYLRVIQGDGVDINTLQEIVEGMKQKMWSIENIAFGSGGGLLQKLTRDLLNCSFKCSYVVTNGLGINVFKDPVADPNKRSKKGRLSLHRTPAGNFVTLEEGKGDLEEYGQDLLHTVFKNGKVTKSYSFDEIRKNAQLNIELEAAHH

Row | Structure (SMILES) | IC50 (A2780 cells; Homo sapiens) [nM] | IC50 ([1]; 2.5 mM ATP) [nM] | IC50 (A2780 cells) [nM] | IC50 ([1]; […] ATP) [nM]
1 | O=C(NCCCCC1CCN(C(=O)c2ccc3cc[nH]c3c2)CC1)c1cc2cnccc2[nH]1 [N-(4-{1-[(1H-indol-6-yl)carbonyl]piperidin-4-yl}butyl)-1H-pyrrolo[3,2-c]pyridine-2-carboxamide] | 13.4 | 52.9 |  | 
2 | O=C(NCCCCC1CCN(C(=O)c2ccc3cc[nH]c3c2)CC1)c1ccc2nccn2c1 [N-(4-{1-[(1H-indol-6-yl)carbonyl]piperidin-4-yl}butyl)imidazo[1,2-a]pyridine-6-carboxamide] | 14.9 | 29.8 |  | 
3 | O=C(NCCCCC1CCN(C(=O)c2ccc3cc[nH]c3c2)CC1)c1cc2ccncc2s1 [N-(4-{1-[(1H-indol-6-yl)carbonyl]piperidin-4-yl}butyl)thieno[2,3-c]pyridine-2-carboxamide] | 70.3 | 36.1 |  | 
4 | O=C(NCCCCC1CCN(C(=O)c2cccc(Cl)c2Cl)CC1)c1cc2cnccc2[nH]1 [N-(4-{1-[(2,3-dichlorophenyl)carbonyl]piperidin-4-yl}butyl)-1H-pyrrolo[3,2-c]pyridine-2-carboxamide] | 3.2 | 31.2 |  | 
5 | O=C(NCCCCC1CCN(C(=O)c2cccc(Cl)c2Cl)CC1)c1cc2ccncc2s1 [N-(4-{1-[(2,3-dichlorophenyl)carbonyl]piperidin-4-yl}butyl)thieno[2,3-c]pyridine-2-carboxamide] | 6.7 | 20.1 |  | 
6 | O=C(NCCCCC1CCN(C(=O)c2cccc(F)c2F)CC1)c1cc2cnccc2[nH]1 [N-(4-{1-[(2,3-difluorophenyl)carbonyl]piperidin-4-yl}butyl)-1H-pyrrolo[3,2-c]pyridine-2-carboxamide] | 3.4 | 12.1 |  | 
7 | O=C(NCCCCC1CCN(C(=O)c2cccc(F)c2F)CC1)c1ccc2nccn2c1 [N-(4-{1-[(2,3-difluorophenyl)carbonyl]piperidin-4-yl}butyl)imidazo[1,2-a]pyridine-6-carboxamide] | 10.1 | 7.9 |  | 
8 | O=C(NCCCCC1CCN(C(=O)c2cccc(F)c2F)CC1)c1cc2ccncc2s1 [N-(4-{1-[(2,3-difluorophenyl)carbonyl]piperidin-4-yl}butyl)thieno[2,3-c]pyridine-2-carboxamide] | 4.5 | 6.8 |  | 
9 | COc1cccc(C(=O)N2CCC(CCCCNC(=O)c3cc4cnccc4[nH]3)CC2)c1OC [N-(4-{1-[(2,3-dimethoxyphenyl)carbonyl]piperidin-4-yl}butyl)-1H-pyrrolo[3,2-c]pyridine-2-carboxamide] | 1.9 | 20.8 |  | 
10 | COc1cccc(C(=O)N2CCC(CCCCNC(=O)c3ccc4nccn4c3)CC2)c1OC [N-(4-{1-[(2,3-dimethoxyphenyl)carbonyl]piperidin-4-yl}butyl)imidazo[1,2-a]pyridine-6-carboxamide] | 2.9 | 19.1 |  | 
11 | COc1cccc(C(=O)N2CCC(CCCCNC(=O)c3cc4ccncc4s3)CC2)c1OC [N-(4-{1-[(2,3-dimethoxyphenyl)carbonyl]piperidin-4-yl}butyl)thieno[2,3-c]pyridine-2-carboxamide] | 5.6 | 16.9 |  | 
12 | O=C(NCCCCC1CCN(C(=O)c2ccc(Cl)cc2Cl)CC1)c1cc2cnccc2[nH]1 [N-(4-{1-[(2,4-dichlorophenyl)carbonyl]piperidin-4-yl}butyl)-1H-pyrrolo[3,2-c]pyridine-2-carboxamide] | 12 | 70 |  | 
13 | O=C(NCCCCC1CCN(C(=O)c2ccc(Cl)cc2Cl)CC1)c1ccc2nccn2c1 [N-(4-{1-[(2,4-dichlorophenyl)carbonyl]piperidin-4-yl}butyl)imidazo[1,2-a]pyridine-6-carboxamide] | 14.4 | 35.7 |  | 
14 | O=C(NCCCCC1CCN(C(=O)c2ccc(Cl)cc2Cl)CC1)c1cc2ccncc2s1 [N-(4-{1-[(2,4-dichlorophenyl)carbonyl]piperidin-4-yl}butyl)thieno[2,3-c]pyridine-2-carboxamide] | 86.1 | 41 |  | 
15 | O=C(NCCCCC1CCN(C(=O)c2ccc(F)cc2F)CC1)c1cc2cnccc2[nH]1 [N-(4-{1-[(2,4-difluorophenyl)carbonyl]piperidin-4-yl}butyl)-1H-pyrrolo[3,2-c]pyridine-2-carboxamide] | 8.1 | 39.3 |  | 
16 | O=C(NCCCCC1CCN(C(=O)c2ccc(F)cc2F)CC1)c1ccc2nccn2c1 [N-(4-{1-[(2,4-difluorophenyl)carbonyl]piperidin-4-yl}butyl)imidazo[1,2-a]pyridine-6-carboxamide] | 25.6 | 7.1 |  | 
17 | O=C(NCCCCC1CCN(C(=O)c2ccc(F)cc2F)CC1)c1cc2ccncc2s1 [N-(4-{1-[(2,4-difluorophenyl)carbonyl]piperidin-4-yl}butyl)thieno[2,3-c]pyridine-2-carboxamide] | 13.5 | 12.8 |  | 
18 | COc1ccc(S(=O)(=O)N2CCC(CCCCNC(=O)c3cc4cnccc4[nH]3)CC2)c(OC)c1 [N-(4-{1-[(2,4-dimethoxybenzene)sulfonyl]piperidin-4-yl}butyl)-1H-pyrrolo[3,2-c]pyridine-2-carboxamide] | 1.7 | 19.1 |  | 
19 | COc1ccc(C(=O)N2CCC(CCCCNC(=O)c3cc4cnccc4[nH]3)CC2)c(OC)c1 [N-(4-{1-[(2,4-dimethoxyphenyl)carbonyl]piperidin-4-yl}butyl)-1H-pyrrolo[3,2-c]pyridine-2-carboxamide] | 3.3 | 67.1 |  | 
20 | COc1ccc(C(=O)N2CCC(CCCCNC(=O)c3ccc4nccn4c3)CC2)c(OC)c1 [N-(4-{1-[(2,4-dimethoxyphenyl)carbonyl]piperidin-4-yl}butyl)imidazo[1,2-a]pyridine-6-carboxamide] | 3.3 | 22.2 |  | 
21 | O=C(NCCCCC1CCN(C(=O)c2cc(Cl)ccc2Cl)CC1)c1cc2cnccc2[nH]1 [N-(4-{1-[(2,5-dichlorophenyl)carbonyl]piperidin-4-yl}butyl)-1H-pyrrolo[3,2-c]pyridine-2-carboxamide] | 6.1 | 51.3 |  | 
22 | O=C(NCCCCC1CCN(C(=O)c2cc(Cl)ccc2Cl)CC1)c1ccc2nccn2c1 [N-(4-{1-[(2,5-dichlorophenyl)carbonyl]piperidin-4-yl}butyl)imidazo[1,2-a]pyridine-6-carboxamide] | 5.5 | 10.2 |  | 
23 | O=C(NCCCCC1CCN(C(=O)c2cc(Cl)ccc2Cl)CC1)c1cc2ccncc2s1 [N-(4-{1-[(2,5-dichlorophenyl)carbonyl]piperidin-4-yl}butyl)thieno[2,3-c]pyridine-2-carboxamide] | 7.1 | 16 |  | 
24 | O=C(NCCCCC1CCN(S(=O)(=O)c2cc(F)ccc2F)CC1)c1cc2cnccc2[nH]1 [N-(4-{1-[(2,5-difluorobenzene)sulfonyl]piperidin-4-yl}butyl)-1H-pyrrolo[3,2-c]pyridine-2-carboxamide] | 5.8 | 11.1 |  | 
25 | O=C(NCCCCC1CCN(C(=O)c2cc(F)ccc2F)CC1)c1ccc2nccn2c1 [N-(4-{1-[(2,5-difluorophenyl)carbonyl]piperidin-4-yl}butyl)imidazo[1,2-a]pyridine-6-carboxamide] | 5 | 5 |  | 
26 | COc1ccc(OC)c(S(=O)(=O)N2CCC(CCCCNC(=O)c3cc4cnccc4[nH]3)CC2)c1 [N-(4-{1-[(2,5-dimethoxybenzene)sulfonyl]piperidin-4-yl}butyl)-1H-pyrrolo[3,2-c]pyridine-2-carboxamide] |  |  | 1.8 | 28.4

— patent US9555039B2, “Piperidine derivatives and compositions for the inhibition of nicotinamide phosphoribosyltransferase (NAMPT)” (Forma TM, LLC., priority 2011, dated 2017)
